In article PMC10638401, “Mannich-type modifications of (−)-cannabidiol and (−)-cannabigerol leading to new, bioactive derivatives” (Scientific Reports, 2023):
≈ marks a conversion by molar mass, not a printed value. Like-named read-outs stand apart in the source and are kept apart here.

Key:
[1] = tested on: SARS-CoV-2; experiment: SARS-CoV-2 cytopathic effect (CPE) inhibition assay in Vero E6 cells (XTT); type: cell-based; details: for EC50: Vero E6 cells, 3 days post-infection, XTT
Experimental: (§1) CBD and CBG derivatives were further tested for their ability to inhibit SARS-CoV-2 replication in Vero E6 cells. Initially, the inhibition of virus-induced cytopathic effect was measured by addition of twofold serial dilutions of each derivative to the cells, followed by the infection with SARS-CoV-2 and determination of the cell viability 3 days post-infection by XTT assay. Concurrently, the cytotoxicity of each compound was assessed from identical dilutions in uninfected Vero E6 cells. To confirm anti-SARS-CoV-2 activity in the CPE inhibition assay, selected compounds were tested in immunofluorescence assay, where inhibition of SARS-CoV-2 replication was monitored as reduction in nucleoprotein expression using fluorescence microscope. […] Among the CBG derivatives, we can find quite cytotoxic and non-cytotoxic derivatives as well.
(§2) For CPE-based assay, two-fold fold serial dilutions of compounds from 100 µM were added in triplicate in a 384-well plate with 5000 Vero E6 cells in DMEM medium with 2% FBS, 100 U of penicillin/ml and 100 µg of streptomycin/ml (all Merck). After 1 h incubation SARS-CoV-2 (strain hCoV-19/Czech Republic/NRL_6632_2/2020) was added at multiplicity of infection […]. Following three days incubation at 37 °C in 5% CO2 the cell viability was determined by addition of XTT solution (Sigma-Aldrich) for 4 h and the absorbance was measured using EnVision plate reader (Perkin Elmer). Drug concentrations required to reduce viral cytopathic effect by 50% (EC50) were calculated using nonlinear regression from plots of percentage cell viability versus log10 drug concentration using GraphPad Prism (version 9.0.0, GraphPad Software, LLC). For immunofluorescence assay, two-fold fold serial dilutions of compounds from 100 µM were added in triplicate in 96-well plate with 15,000 Vero E6 cells plated day before in the same medium as above. After 1 h incubation, SARS-CoV-2 was added at multiplicity of infection 0.05 IU/cell. After three days of incubation, cells were fixed with 4% paraformaldehyde, permeabilized with 0.2% Triton X100 (both Merck), washed, incubated with anti-SARS-CoV-2antibody (mouse monoclonal antibody detecting SARS-CoV-2 nucleoprotein) for 2 h at room temperature. Followed by 1.5 h incubation with Cy3-labeled donkey anti-mouse IgG (Jackson ImmunoResearch Europe) and documented using fluorescence microscope with camera (Olympus). Images were processed in ImageJ software (NIH) and compound concentrations required to reduce fluorescence by 50% (EC50s) were calculated from plots of percentage of fluorescent cells versus log10 drug concentration using nonlinear regression analysis as above. Cytotoxicity was evaluated by incubating with the same two-fold serial dilutions of each compound as above with Vero E6 cells in 384-well plate.

[2] = tested on: SARS-CoV-2; experiment: SARS-CoV-2 immunofluorescence assay (nucleoprotein expression) in Vero E6 cells; type: cell-based; details: three days
Experimental: as §1, §2

[3] = tested on: Vero E6 cells; details: uninfected Vero E6 cells, three days, XTT
[4] = tested on: Bacillus subtilis; experiment: MIC, broth micro dilution
[5] = tested on: MSSA (Methicillin Sensitive Staphylococcus aureus); experiment: MIC, broth micro dilution
Experimental: (§6) According to CLSI guideline the Minimal Inhibitory Concentrations (MICs) of the prepared compounds were determined with the broth micro dilution method. After an overnight growth on 5% bovine blood agar plates at 35 °C bacterial strains were suspended in physiological saline in order to reach the density of 0.5 McFarland for inoculation. Stock solutions containing different concentrations of the substances were prepared in DMSO and H2O (1:1). These were twofold serially diluted from 256 to 0.5 mg/l in Mueller–Hinton broth, and 100 ml of each dilution was inoculated with 10 ml of each bacterial suspension.

[6] = tested on: MRSA (Methicillin Resistant Staphylococcus aureus); experiment: MIC, broth micro dilution
Experimental: as §6

[7] = tested on: Staphylococcus epidermidis biofilm forming; experiment: MIC, broth micro dilution
Experimental: as §6

[8] = tested on: Staphylococcus epidermidis mecA; experiment: MIC, broth micro dilution
Experimental: as §6

[9] = tested on: Enterococcus faecalis 29 212; experiment: MIC, broth micro dilution
Experimental: as §6

[10] = tested on: Enterococcus faecalis 15 376 VanA; experiment: MIC, broth micro dilution
Experimental: as §6

[11] = tested on: Enterococcus faecalis 51299 VanB; experiment: MIC, broth micro dilution
[12] = tested on: A2780 cells; experiment: Antiproliferative MTT assay, 72 h; type: cell-based, human; details: A2780, 10 and 30 μM
Text: (§3) Human adherent cancer cell lines A2780, MDA-MB-231 and MCF-7 were obtained from ECACC (European Collection of Cell Cultures, Salisbury, UK; Cat. No.93112519, 92020424, 86012803, respectively). SiHa cell line was obtained from ATCC (American Tissue Culture Collection, Manassas, Virginia, USA; Cat. No. HTB-35). All cell lines used for antiproliferative assay were maintained in Eagle's Minimum Essential Medium (EMEM) completed with 10% fetal bovine serum (FBS), 1% non-essential amino acid solution, and 1% penicillin, streptomycin, and amphotericin B mixture under cell culture conditions described before. All the utilized media and supplements were purchased from Lonza Group Ltd. (Basel, Switzerland).
(§4) The antiproliferative actions of the prepared molecules were determined by the same assay against a panel of adherent human cancer cell lines containing cervical (SiHa), ovarian (A2780) and breast (MCF7, MDA-MB-231) cell lines. Cells were plated onto 96-well microplates (5000 cells/well) and after an overnight incubation treated with two concentrations (10 or 30 μM) of the test substances for 72 h under cell culture conditions. Subsequently, MTT (5 mg/ml in phosphate buffer) was added to the wells, followed by incubation for 4 h. The supernatant was removed, the formazan crystals were then dissolved in 100 µl DMSO. Finally, absorbance values were determined by a microplate reader (BMG Labtech, Ortenberg, Germany) at 545 nm. Two independent measurements were performed with five parallel wells. Results were expressed as percentage of cell proliferation inhibition compared to non-treated control samples regarded as 0%.

[13] = tested on: MCF7 cells; experiment: Antiproliferative MTT assay, 72 h; type: cell-based, human; details: for antiproliferative activity (in words): MCF7, 10 and 30 μM
Text: as §3, §4

[14] = tested on: MDA-MB-231 cells; experiment: Antiproliferative MTT assay, 72 h; type: cell-based, human; details: MDA-MB-231, 10 and 30 μM
Text: as §3, §4

[15] = tested on: SiHa cells; experiment: Antiproliferative MTT assay, 72 h; type: cell-based, human; details: 10 and 30 μM
Text: as §3, §4

[16] = tested on: SZ95 sebocytes; experiment: Viability MTT-assay on sebocytes, 48 h; type: cell-based, human; details: 30 μM
Experimental: (§5) Human immortalized SZ95 sebocytes, originated from human facial sebaceous glands[50] were provided by prof. Christos C. Zouboulis, and were cultured in Sebomed® Basal Medium (Cat. No. F8205; Sigma-Aldrich) supplemented with 10% FBS (Gibco-Thermo Fisher Scientific), 1 mM CaCl2 (Cat. No. C7902; Sigma-Aldrich), 5 ng/ml human epidermal growth factor (Cat. No. E9644; Sigma-Aldrich), and MycoZap™ Plus-CL (1:500; Lonza). The medium was changed every other day, and cells were subcultured at 60–70% confluence.
The viability of HaCaT keratinocytes and SZ95 sebocytes was determined by MTT-assay[58] (Cat. No. M5655; Sigma-Aldrich) measuring the conversion of the tetrazolium salt to formazan by mitochondrial dehydrogenases. Cells were plated in 96-well plates (20,000 cells/well), and were treated as indicated. Cells were then incubated with 0.5 mg/ml MTT reagent for 3 h, and concentration of formazan crystals (as an indicator of number of viable cells) was determined colorimetrically at 565 nm by using FlexStation 3 multi-mode microplate reader (Molecular Devices). Results were expressed as percentage of vehicle-treated control regarded as 100%.

[17] = tested on: SZ95 sebocytes; experiment: Nile Red-assay, spontaneous sebaceous lipogenesis; type: cell-based, human; details: applied alone, 48 h
[18] = tested on: SZ95 sebocytes; experiment: Nile Red-assay, arachidonic acid-induced lipogenesis; type: cell-based, human; details: 50 μM arachidonic acid, 48 h
Experimental: as §5
For quantitative measurement of sebaceous (neutral) lipid content, SZ95 sebocytes (20,000 cells/well) were cultured in 96-well “black well/clear bottom” plates (Cat. No. 655090; Greiner Bio-One, Frickenhausen, Germany), and were treated with compounds in the presence or absence of arachidonic acid (AA; Cat. No. 90010; Cayman Chemical Company, Ann Arbor, MI, USA) or its vehicle (absolute ethanol) as indicated. Subsequently, supernatants were discarded, cells were washed twice with phosphate-buffered saline (PBS; 115 mM NaCl, 20 mM Na2HPO4, pH 7.4; all from Sigma-Aldrich), and 100 µl of a 1 µg/ml Nile Red (Cat. No. N3013; Sigma-Aldrich) solution in PBS was added to each well. The plates were then incubated at 37 °C for 30 min, and fluorescence was measured on FlexStation 3 multimode microplate reader (Molecular Devices, San Francisco, CA, USA). Results, measured in relative fluorescence units, are expressed as percentage of the vehicle (absolute ethanol; Cat. No. 20821.296; VWR International)-treated control regarded as 100%, using 485 nm excitation and 565 nm emission wavelengths.

[19] = in vitro; details: African green monkey
[20] = Staphylococcus epidermidis biofilm forming
[21] = Staphylococcus epidermidis mecA
[22] = Enterococcus faecalis 15 376 VanA
[23] = Enterococcus faecalis 51299 VanB
[24] = Severe acute respiratory syndrome coronavirus 2, Vero C1008, 72 h

SMILES | EC50 [1] [µM] | EC50 [2] [µM] | CC50 [3] [µM] | MIC [4] [µg/mL] | MIC [5] [µg/mL] | MIC [6] [µg/mL] | MIC [7, 20] [µg/mL] | MIC [8, 21] [µg/mL] | MIC ([9]; Enterococcus faecalis 29 212) [µg/mL] | MIC [10, 22] [µg/mL] | MIC [11, 23] [µg/mL] | antiproliferative activity (in words) [12] | antiproliferative activity (in words) [13] | antiproliferative activity (in words) [14] | antiproliferative activity (in words) [15] | viability (MTT signal intensity) [16] | spontaneous, homeostatic sebaceous lipogenesis [17] | effect on the lipogenic effect of arachidonic acid (AA) [18] | further results
C#CCN1COc2c(C/C=C(\C)CCC=C(C)C)c(O)cc(CCCCC)c2C1 [Compound 18] | 15 ± 0.94 | > 28 | ~28 | > 256 | > 256 | > 256 | > 256 | > 256 | 64 (≈ 162 µM) | > 256 | 64 (≈ 162 µM) |  |  |  |  |  |  |  | 
C#CCN1COc2c(c(CCCCC)cc(O)c2[C@@H]2C=C(C)CC[C@H]2C(=C)C)C1 [Compound 11] | 17 ± 1.5 | 33 ± 1.4 | 77 ± 2.6 | > 256 | > 256 | > 256 | > 256 | > 256 | 128 (≈ 325 µM) | > 256 | 128 (≈ 325 µM) | None of the other tested CBD analogs (9, 11, and 12) exhibited substantial antiproliferative activity | None of the other tested CBD analogs (9, 11, and 12) exhibited substantial antiproliferative activity | None of the other tested CBD analogs (9, 11, and 12) exhibited substantial antiproliferative activity | None of the other tested CBD analogs (9, 11, and 12) exhibited substantial antiproliferative activity |  |  |  | 
CCCCCc1cc(O)c(C/C=C(\C)CCC=C(C)C)c2c1CN(CCCC)CO2 [Compound 16a] |  |  |  |  |  |  |  |  |  |  |  |  |  |  |  | tended to suppress viability | mimicked the previously reported weak lipogenic effect of CBG | suppress the effect of AA | 
CCCCCc1c(CN(CC)CC)c(O)c(C/C=C(\C)CCC=C(C)C)c(O)c1CN(CC)CC [Compound 21b] |  |  |  | > 256 |  |  |  |  |  |  |  |  |  |  |  | rather increased MTT signal intensity | mimicked the previously reported weak lipogenic effect of CBG | suppress the effect of AA | EC50 [1, 24]: 12 ± 0.99 µM; IC50 ([1]; Severe acute respiratory syndrome coronavirus 2, Vero C1008, read-out: IC50 (anti-SARS-CoV-2 activity, Figure 8)): 12 µM; EC50 [2, 24]: > 100 µM; CC50 [19]: > 100 µM; MIC ([5]; Staphylococcus aureus): > 256 µg/mL; MIC ([6]; Staphylococcus aureus): > 256 µg/mL; MIC ([7]; Staphylococcus epidermidis): > 256 µg/mL; MIC ([8]; Staphylococcus epidermidis): > 256 µg/mL; MIC ([9]; Enterococcus faecalis, 29212): 64 µg/mL (≈ 131 µM); MIC ([10]; Enterococcus faecalis, 15376VANA): > 256 µg/mL; MIC ([11]; Enterococcus faecalis, 51299VANB): 64 µg/mL (≈ 131 µM)
C=C(C)[C@@H]1CCC(C)=C[C@H]1c1c(O)cc(CCCCC)c2c1OCN(CCCC)C2 [Compound 8] | 21 ± 3.7 | 31 ± 1.1 | > 100 | > 256 | > 256 | > 256 | > 256 | > 256 | 2 (≈ 4.86 µM) | > 256 | 2 (≈ 4.86 µM) |  | more sensitive |  |  | cytotoxic effects | rather promote spontaneous, homeostatic sebaceous lipogenesis | mimic this lipostatic effect | inhibition of the proliferation (in words) ([13]; MCF7, 10 μM): much more potent than the parent CBD; promotion of spontaneous sebaceous lipogenesis, significance ([17]; 10 and 30 μM): statistically significant
CCCCCc1c2c(c(C/C=C(\C)CCC=C(C)C)c3c1CN(CCCC)CO3)OCN(CCCC)C2 [Compound 16b] | > 7.7 |  | 7.7 ± 3.2 | > 256 | > 256 | > 256 | > 256 | > 256 | 64 (≈ 125 µM) | > 256 | 64 (≈ 125 µM) | more active than CBG | more active than CBG | more active than CBG | more active than CBG |  |  |  | 
